Experimental findings from ChEMBL document CHEMBL1127807 (J Med Chem, 1994) are described below.

One may read the IC50 as the concentration that inhibits the measured activity by half. A higher IC50 goes with lower potency.

One test addresses Mu-type opioid receptor (Cavia porcellus, UniProt P97266). The test is described as follows: Tested for the binding affinity against the Mu opioid receptor in guinea pig brain using [3H]-DAMGO.
For test [1], the target named is Kappa-type opioid receptor (Cavia porcellus, UniProt P41144). Briefly: Tested for the binding affinity against the Kappa opioid receptor in guinea pig brain using [3H]U-69593.
Kappa-type opioid receptor, sequence (P41144 whole entry): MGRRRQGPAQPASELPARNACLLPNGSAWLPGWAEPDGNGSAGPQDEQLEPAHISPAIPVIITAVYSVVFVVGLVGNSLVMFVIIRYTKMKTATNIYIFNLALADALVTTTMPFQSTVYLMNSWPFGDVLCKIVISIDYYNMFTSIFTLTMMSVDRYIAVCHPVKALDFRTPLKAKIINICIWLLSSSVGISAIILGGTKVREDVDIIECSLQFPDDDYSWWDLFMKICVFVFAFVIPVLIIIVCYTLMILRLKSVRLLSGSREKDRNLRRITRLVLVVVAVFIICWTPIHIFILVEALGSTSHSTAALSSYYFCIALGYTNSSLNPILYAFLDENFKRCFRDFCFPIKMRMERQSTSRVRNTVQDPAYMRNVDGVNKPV
The target in test [2] is Opioid receptors; mu/kappa/delta (Homo sapiens, UniProt P41145+P41143+P35372). The test is described as follows: Tested for the binding affinity against the opioid receptor in guinea pig brain using [3H]bremazocine. Also on record: species or system Cavia porcellus. The note with it: target entry is the homologue from another species.

Mu-type opioid receptor, sequence (P97266 whole entry): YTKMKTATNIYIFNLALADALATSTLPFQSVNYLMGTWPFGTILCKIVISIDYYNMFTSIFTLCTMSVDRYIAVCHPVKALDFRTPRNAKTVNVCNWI

Turning to `Oc1ccc2c3c1OC1[C@@H](OCc4ccc5ccccc5c4)CCC4(O)C(C2)N(CC2CC2)CCC314` (some centres not stated), the IC50 at Mu-type opioid receptor turned out to be 1.2 nM; in test [1], 1.4 nM; in test [2], 4.7 nM.
Taken in the same sequence, the figures for `Oc1ccc2c3c1OC1[C@@H](OCc4cccc5ccccc45)CCC4(O)C(C2)N(CC2CC2)CCC314` (some centres not stated) were 1 nM, 4.4 nM and 7.3 nM.
For `Oc1ccc2c3c1OC1[C@@H](OCc4ccc(-c5ccccc5)cc4)CCC4(O)C(C2)N(CC2CC2)CCC314` (some centres not stated), the concentration for half-maximal inhibition (IC50) amounted to 10 nM at Mu-type opioid receptor, 12 nM in test [1] and 28 nM in test [2].
Taken in the same sequence, the figures for `Oc1ccc2c3c1OC1[C@@H](OCc4ccccc4)CCC4(O)C(C2)N(CC2CC2)CCC314` (some centres not stated) were 0.3 nM, 0.6 nM and 1.5 nM.
Taken in the same sequence, the figures for `Oc1ccc2c3c1OC1[C@@H](OCc4c5ccccc5cc5ccccc45)CCC4(O)C(C2)N(CC2CC2)CCC314` (some centres not stated) were 6.6 nM, 34 nM and 45 nM.
On to `Oc1ccc2c3c1OC1[C@H](OCc4ccc5ccccc5c4)CCC4(O)C(C2)N(CC2CC2)CCC314` (some centres not stated), for which the IC50 on Mu-type opioid receptor came out at 1.7 nM; in test [1] it was 1.5 nM; in test [2] it was 5 nM.
Taken in the same sequence, the figures for `Oc1ccc2c3c1OC1[C@H](OCc4ccc(-c5ccccc5)cc4)CCC4(O)C(C2)N(CC2CC2)CCC314` (some centres not stated) were 0.7 nM, 1.5 nM and 3.3 nM.
Taken in the same sequence, the figures for `Oc1ccc2c3c1OC1[C@H](OCc4ccccc4)CCC4(O)C(C2)N(CC2CC2)CCC314` (some centres not stated) were 2.4 nM, 2 nM and 3.4 nM.
On to `Oc1ccc2c3c1OC1[C@H](OCc4c5ccccc5cc5ccccc45)CCC4(O)C(C2)N(CC2CC2)CCC314` (some centres not stated), for which the 50% inhibitory concentration (IC50) at Mu-type opioid receptor was found to be 16 nM; in test [1], 27 nM; in test [2], 71 nM.
Taken in the same sequence, the figures for `Oc1ccc2c3c1OC1[C@H](OCc4cccc5ccccc45)CCC4(O)C(C2)N(CC2CC2)CCC314` (some centres not stated) were 3.1 nM, 6.1 nM and 11 nM.
`O=C(COC1CCC2(O)C3Cc4ccc(O)c5c4C2(CCN3CC2CC2)C1O5)C1[C@H]2C[C@@H]3C[C@@H](C[C@H]1C3)C2` (some centres not stated): the IC50 at Mu-type opioid receptor was 6.6 nM; in test [1], 3.3 nM; in test [2], 13 nM.
With `Oc1ccc2c3c1O[C@H]1[C@H](O)CC[C@@]4(O)[C@@H](C2)N(CC2CC2)CC[C@]314` (stereo in doubt; 6), the IC50 at Mu-type opioid receptor turned out to be 1.1 nM; in test [1], 2.6 nM.
Take `Oc1ccc2c3c1O[C@H]1[C@H](O)CC[C@@]4(O)[C@@H](C2)N(CC2CC2)CC[C@]314` (stereo in doubt; 7): the IC50 was 0.5 nM on Mu-type opioid receptor and 1.8 nM in test [1].
